Test systems include OVCAR-5 ovarian; SK-OV-3 ovarian; SNB-75 CNS; SK-MEL-5 melanoma; HOP-92 NSCLC; 786-0 renal; KM12 colon; TK-10 renal; U251 CNS; EKVX NSCLC.
Holding throughout (experiment): DTP human tumour cell line panel, 48 h

These results are taken from PubChem BioAssay (NCI).

SMILES strings stand for the structures.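 Following 48 hours of exposure in 96-well plates, responses at five concentrations were used to interpolate endpoints linearly. GI50: concentration for 50% inhibition of growth. At the TGI there is no net growth.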

Consider `OCCN1CCCN(CCCN2c3ccccc3Sc3ccc(C(F)(F)F)cc32)CC1`, for which the GI50 with OVCAR-5 ovarian was 3.21 µM; in the assay on SK-OV-3 ovarian it was 5.29 µM; with SNB-75 CNS, 1.21 µM; in the assay with SK-MEL-5 melanoma, 1.67 µM; with HOP-92 NSCLC, 1.73 µM; in the assay on 786-0 renal, 2.21 µM. Besides, the GI50 in the assay with KM12 colon is 2.27 µM; with TK-10 renal, 1.68 µM; in the assay on U251 CNS it was 2.04 µM. In addition, the TGI was 15 µM in the assay with OVCAR-5 ovarian; 18.4 µM with SK-OV-3 ovarian; 8.51 µM in the assay on SNB-75 CNS; 3.09 µM in the assay on SK-MEL-5 melanoma; 7.63 µM with HOP-92 NSCLC; 5.25 µM in the assay with 786-0 renal. Besides, the TGI with KM12 colon worked out at 4.69 µM; in the assay with TK-10 renal it was 3.58 µM; in the assay on U251 CNS it was 4.32 µM.
On to `COc1cc2c(c(OC)c1OC)-c1ccc(SC)c(=O)cc1C(CC(=O)Oc1ccccc1F)C2` (stereo unspecified), for which the TGI in the assay on OVCAR-5 ovarian is greater than 7.5 µM; in the assay with SK-OV-3 ovarian, greater than 7.5 µM; in the assay with SNB-75 CNS it was greater than 7.5 µM; in the assay with HOP-92 NSCLC it was greater than 7.5 µM; with 786-0 renal it was greater than 7.5 µM; with KM12 colon, 0.0493 µM. For the same molecule, the TGI was greater than 7.5 µM in the assay on TK-10 renal and 0.108 µM in the assay with U251 CNS.
As to `COc1cc([C@H]2c3cc4c(cc3[C@H](NCc3ccc(F)cc3)C3COC(=O)[C@H]32)OCO4)cc(OC)c1O` (stereo partly specified), the TGI in the assay with OVCAR-5 ovarian is 30.9 µM; in the assay on SK-OV-3 ovarian, 9.78 µM; in the assay on SNB-75 CNS, 9.16 µM; in the assay on HOP-92 NSCLC it was 49.5 µM; in the assay on 786-0 renal, 5.48 µM; with KM12 colon, 15.1 µM. Moreover, the TGI worked out at 41.4 µM in the assay on TK-10 renal, 28.8 µM with EKVX NSCLC and 4.35 µM in the assay with U251 CNS.
`COc1cc(COC(=O)N(C)[C@@H](Cc2ccccc2)C(=O)O)c([N+](=O)[O-])cc1OC`: the TGI in the assay on OVCAR-5 ovarian, in the assay with SK-OV-3 ovarian, with SNB-75 CNS, in the assay with SK-MEL-5 melanoma, with HOP-92 NSCLC and in the assay with 786-0 renal was greater than 100 µM each time. Also, the TGI with KM12 colon, in the assay on EKVX NSCLC and in the assay with U251 CNS was greater than 100 µM throughout.
Regarding `CC[C@]1(O)C[C@@H]2CN(CCc3c([nH]c4ccccc34)[C@@](C(=O)OC)(c3cc4c(cc3OC)N(C)[C@H]3[C@@](O)(C(=O)OC)[C@H](OC(=O)CCCBr)[C@]5(CC)C=CCN6CC[C@]43[C@@H]65)C2)C1`, the GI50 is less than 0.023 µM with OVCAR-5 ovarian; 0.306 µM in the assay on SK-OV-3 ovarian; less than 0.01 µM with SNB-75 CNS; 0.0877 µM in the assay on HOP-92 NSCLC; 0.0535 µM in the assay on 786-0 renal; less than 0.0163 µM in the assay on KM12 colon. Besides, the values for the GI50 in the assay on TK-10 renal, in the assay with EKVX NSCLC and with U251 CNS were 2 µM, 0.336 µM and 0.0334 µM, respectively. Moreover, the TGI was greater than 100 µM in the assay with OVCAR-5 ovarian; greater than 22.2 µM with SK-OV-3 ovarian; less than 0.01 µM in the assay with SNB-75 CNS; 3.53 µM in the assay with HOP-92 NSCLC; greater than 33.1 µM in the assay on 786-0 renal; 3.84 µM in the assay on KM12 colon. In addition, the TGI in the assay with TK-10 renal, in the assay on EKVX NSCLC and with U251 CNS was greater than 100 µM in each case.
For the molecule `Cc1cc(N(CCC#N)CCC#N)ccc1/C=C1N=C(/C=C\c2ccccc2)N(c2ccc(C(=O)O)cc2)C\1=O`, the TGI with OVCAR-5 ovarian, in the assay with SK-OV-3 ovarian, in the assay with SNB-75 CNS, with SK-MEL-5 melanoma, in the assay on HOP-92 NSCLC and with 786-0 renal was greater than 100 µM in each case. Moreover, the TGI in the assay with KM12 colon, in the assay with TK-10 renal and with U251 CNS was greater than 100 µM each time.
On to `Cn1cc(C2=C(c3cccc([N+](=O)[O-])c3)C(=O)NC2=O)c2ccccc21`, for which the GI50 was greater than 25 µM with OVCAR-5 ovarian; 6.35 µM in the assay with SK-OV-3 ovarian; 0.14 µM in the assay with SNB-75 CNS; 3.63 µM in the assay on SK-MEL-5 melanoma; 4.22 µM with HOP-92 NSCLC; 6.45 µM in the assay with 786-0 renal. Also, the GI50 in the assay with KM12 colon was 5.05 µM; with TK-10 renal, 12.1 µM; in the assay with U251 CNS it was 5.9 µM. Also, the TGI with OVCAR-5 ovarian was greater than 25 µM; with SK-OV-3 ovarian it was greater than 25 µM; with SNB-75 CNS, greater than 25 µM; with SK-MEL-5 melanoma, 8.48 µM; in the assay with HOP-92 NSCLC, greater than 20.6 µM; in the assay on 786-0 renal it was greater than 25 µM. Besides, the figures for the TGI with KM12 colon, with TK-10 renal and with U251 CNS were 12.9 µM, greater than 25 µM and greater than 25 µM, respectively.
In the case of `O=S1(=O)CS(=O)(=O)OCCCCCO1`, the TGI in the assay on OVCAR-5 ovarian, in the assay with SK-OV-3 ovarian, in the assay on SNB-75 CNS, in the assay on HOP-92 NSCLC, in the assay with 786-0 renal and with KM12 colon was greater than 100 µM in each case. In addition, the TGI in the assay with TK-10 renal, in the assay on EKVX NSCLC and with U251 CNS was greater than 100 µM throughout.
On to `COc1ccc(C2C(C(=O)O)=C(COC(C)=O)Oc3cc4c(cc32)OCO4)c(OC)c1` (stereo unspecified), for which the TGI in the assay with SK-OV-3 ovarian, with SNB-75 CNS, in the assay on SK-MEL-5 melanoma, in the assay with HOP-92 NSCLC, in the assay on 786-0 renal and with TK-10 renal was greater than 100 µM throughout. Further, the TGI with EKVX NSCLC and with U251 CNS was greater than 100 µM each time.
As for `CN(Cc1cnc2nc(N)nc(N)c2n1)c1c(Cl)cc(C(=O)NC(CCC(=O)O)C(=O)O)cc1Br` (stereo unspecified), the GI50 is 0.127 µM with OVCAR-5 ovarian; 0.0595 µM in the assay on SK-OV-3 ovarian; 0.0313 µM in the assay with SK-MEL-5 melanoma; greater than 100 µM in the assay with HOP-92 NSCLC; less than 0.01 µM in the assay with 786-0 renal; less than 0.01 µM with KM12 colon. Further, the GI50 with TK-10 renal was less than 0.01 µM; in the assay on EKVX NSCLC, less than 0.0282 µM; with U251 CNS, less than 0.0237 µM. The TGI in the assay with OVCAR-5 ovarian, with SK-OV-3 ovarian, in the assay on SK-MEL-5 melanoma, in the assay on HOP-92 NSCLC, in the assay with 786-0 renal and in the assay with KM12 colon was greater than 100 µM throughout. The TGI in the assay on TK-10 renal, in the assay on EKVX NSCLC and in the assay with U251 CNS was greater than 100 µM in each case.
Consider `N#CC(C#N)=C/C=C/c1ccccc1[N+](=O)[O-]`, for which the TGI in the assay with SK-OV-3 ovarian, with SNB-75 CNS, in the assay with SK-MEL-5 melanoma, in the assay with HOP-92 NSCLC, in the assay with 786-0 renal and with KM12 colon was greater than 10 µM in each case. For the same molecule, the TGI in the assay on TK-10 renal, in the assay with EKVX NSCLC and with U251 CNS was greater than 10 µM throughout.
As for `O=C(Nc1c(Cl)cc([N+](=O)[O-])cc1Cl)C(=O)C(C(=O)c1ccncc1)C1OC(=O)c2ccccc21` (stereo unspecified), the TGI in the assay on OVCAR-5 ovarian, in the assay on SK-OV-3 ovarian, in the assay with SNB-75 CNS, with HOP-92 NSCLC, with 786-0 renal and in the assay on KM12 colon was greater than 100 µM throughout. Moreover, the TGI in the assay with TK-10 renal, in the assay on EKVX NSCLC and with U251 CNS was greater than 100 µM each time.
On to `Cc1c(C(=O)/C=C/c2ccc3c(c2)OCO3)[n+](=O)c2ccccc2n1[O-]`, for which the TGI is 74.3 µM in the assay with OVCAR-5 ovarian; 51.2 µM with SK-OV-3 ovarian; 68.6 µM in the assay on SNB-75 CNS; 69.7 µM in the assay on HOP-92 NSCLC; greater than 100 µM in the assay on 786-0 renal; 90.5 µM in the assay on KM12 colon. Besides, the figures for the TGI in the assay with TK-10 renal, in the assay with EKVX NSCLC and in the assay on U251 CNS were 80.6 µM, 69.3 µM and greater than 100 µM, respectively.
On to `NC(=O)N1N=C2c3ccccc3OC[C@H]2[C@@H]1c1ccccc1`, for which the TGI in the assay with OVCAR-5 ovarian is 72.1 µM; in the assay with SK-OV-3 ovarian, greater than 100 µM; in the assay on SNB-75 CNS it was greater than 91.7 µM; with HOP-92 NSCLC, greater than 100 µM; with 786-0 renal, greater than 100 µM; in the assay on KM12 colon, 16.6 µM. Moreover, the TGI with TK-10 renal is greater than 100 µM; in the assay with EKVX NSCLC, greater than 100 µM; in the assay with U251 CNS, 28.5 µM.
`COc1cc(C(=O)Nc2ccc(-c3nc4ccccc4[nH]3)cc2)cc(OC)c1OC`: the GI50 in the assay with OVCAR-5 ovarian is 11.7 µM; in the assay with SK-OV-3 ovarian, 16.5 µM; with SNB-75 CNS it was 10.9 µM; in the assay on SK-MEL-5 melanoma it was 11.5 µM; in the assay on HOP-92 NSCLC, 6.41 µM; in the assay on 786-0 renal, 11.8 µM. The GI50 was 9.22 µM in the assay with KM12 colon, 15.1 µM in the assay on TK-10 renal and 10.2 µM with U251 CNS. For the same molecule, the TGI in the assay with OVCAR-5 ovarian stood at 26.3 µM; in the assay with SK-OV-3 ovarian, 30.6 µM; in the assay on SNB-75 CNS, 24.6 µM; in the assay on SK-MEL-5 melanoma it was 25.9 µM; in the assay with HOP-92 NSCLC it was 24.2 µM; in the assay with 786-0 renal, 28.6 µM. Also, the TGI with KM12 colon worked out at 32.5 µM; with TK-10 renal it was 29.3 µM; with U251 CNS, 23.4 µM.
As to `COc1ccc(C2NC(c3ccc(OC)cc3)C(C)C(=O)C2C)cc1` (stereo unspecified), the TGI with OVCAR-5 ovarian was 97.2 µM; with SK-OV-3 ovarian it was greater than 100 µM; with SNB-75 CNS, greater than 100 µM; in the assay with HOP-92 NSCLC it was greater than 100 µM; with 786-0 renal, greater than 100 µM; in the assay on KM12 colon, greater than 100 µM. Besides, the TGI in the assay on TK-10 renal, in the assay with EKVX NSCLC and with U251 CNS was greater than 100 µM throughout.
In the case of `COC(=O)C1C(=O)NC2(C)CC1c1ccccc1O2` (stereo unspecified), the TGI in the assay with OVCAR-5 ovarian, in the assay with SK-OV-3 ovarian, in the assay with SNB-75 CNS, in the assay on SK-MEL-5 melanoma, in the assay with HOP-92 NSCLC and in the assay with 786-0 renal was greater than 100 µM each time. The TGI in the assay with KM12 colon, in the assay with TK-10 renal and in the assay on U251 CNS was greater than 100 µM throughout.

As a reminder, the GI50 is the concentration giving 50% growth inhibition. The term TGI denotes the concentration at which net growth stops. Read a high TGI as less potent growth arrest.
